The molecules below were run against T1, Aldehyde Dehydrogenase (Yeast ALDH) (Saccharomyces cerevisiae, UniProt P46367) (assay: ALDH assay by spectroscopic method (screening for ALDH activity)). Settings: substrate reagent 50 μM in 0.1M TrisHCl pH 8.0, change in absorbance or fluorescence as a function of time.
T1 sequence (P46367 25-519): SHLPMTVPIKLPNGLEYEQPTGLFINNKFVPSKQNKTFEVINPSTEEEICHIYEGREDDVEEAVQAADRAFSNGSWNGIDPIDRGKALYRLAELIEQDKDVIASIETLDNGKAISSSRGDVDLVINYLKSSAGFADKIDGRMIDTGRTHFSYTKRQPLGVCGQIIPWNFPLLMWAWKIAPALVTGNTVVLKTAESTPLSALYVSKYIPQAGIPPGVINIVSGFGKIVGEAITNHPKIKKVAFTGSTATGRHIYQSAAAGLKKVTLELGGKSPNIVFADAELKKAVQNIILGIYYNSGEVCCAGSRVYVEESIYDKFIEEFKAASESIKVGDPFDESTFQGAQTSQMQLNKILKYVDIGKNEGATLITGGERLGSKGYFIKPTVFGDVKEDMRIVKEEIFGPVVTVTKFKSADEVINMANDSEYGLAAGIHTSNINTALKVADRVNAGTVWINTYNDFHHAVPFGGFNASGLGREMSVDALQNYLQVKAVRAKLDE
Assay type: biochemical
Description: Aldehyde Dehydrogenase is an enzyme that acts on aldehydes as substrates and converts them to acid (products).
Designing and Standardization of ALDH Assay: • following the conversion of NAD+ to NADH typically one does the ALDH assays.
[drawing 72] • The formation of NADH is monitored by measuring the absorbance at 340 nm. However, before employing this method, the compounds were screened for their spectral properties, especially to avoid any interference in absorbance either from the substrate or the product.
Such compounds were further screened for their fluorescence properties by recording their excitation/emission wavelengths.
ALDH Assay by Spectroscopic Method: • The ALDH assay is designed to measure either the utilization of the substrate or formation of product by measuring at their unique wavelengths (Absorbance or Fluorescence).
All the spectral studies for the compounds were carried out in 0.1M Tris HCl pH 8.0 buffer. CSCT Compounds were initially dissolved in Methanol (˜2.0 mg/mL). The compounds were further diluted in 0.1M Tris HCl pH 8.0 buffer (concentration ranging from ˜20 to 50 μg/mL). The Spectra was recorded using Spectramax M5.
The ALDH activity can be followed either by monitoring the conversion of β-NAD^+ to β-NADH or by directly monitoring the product/substrate. The conversion of β-NAD^+ to β-NADH yields increasing in absorbance at 340 nm. If either the substrate/products have any spectral interference at this wavelength then unique absorbance/fluorescence wavelength of either product/substrate are used. The measurements were taken on Spectromax M5.
• 1. Reagent 1: 1 M Tris HCl Buffer, pH 8.0 at 25° C. (Prepare 50 ml in deionized water using Trizma Base, Sigma Prod. No. T-1503. Adjust to pH 8.0 at 25° C. with 1 M HCl.) • 2. Reagent 2: 20 mM β-Nicotinamide Adenine Dinucleotide, Oxidized Form, Solution (β-NAD^+) (Prepare 1 ml in deionized water using β-Nicotinamide Adenine Dinucleotide, PREPARE FRESH). • 3. Reagent 3: 3 M Potassium Chloride Solution (KCl) (Prepare 1 ml in deionized water using Potassium Chloride). • 4. Reagent 4: 1 M 2-Mercaptoethanol Solution (2-ME) (Prepare 1 ml in deionized water using 2-Mercaptoethanol. PREPARE FRESH.) • 5. Reagent 5: 100 mM Tris HCl Buffer with 0.02% (w/v) Bovine Serum Albumin, pH 8.0 at 25° C. (for Enzyme Dilution). • 6. Reagent 6: Aldehyde Dehydrogenase Enzyme Solution (Yeast ALDH). Immediately before use, prepare a solution containing 0.5-1 unit/ml of Aldehyde Dehydrogenase in cold Reagent 5).
Pipette (in milliliters) the following reagents into vial:
In a 3.00 ml reaction mix, the final concentrations are 103 mM Tris HCl Buffer (Reagent 1), 0.67 mM β-nicotinamide adenine dinucleotide (Reagent 2), 100 mM potassium chloride (Reagent 3), 10 mM 2-mercaptoethanol (Reagent 4), 0.0007% (w/v) bovine serum albumin (Reagent 5) and 0.05-0.1 unit aldehyde dehydrogenase (Reagent 6).
In the case of `O=Cc1ccc2cc(OCCCF)ccc2c1` [Example 3, 6-(3-fluororpropyloxy)-2-naphthaldehyde], the “Comments (ALDH assay screening result)” value is reported as “Active”. With `O=Cc1ccc2cc(OCCF)ccc2c1` [Example 3A, 6-(2-fluoroethyloxy)-2-naphthaldehyde] the “Comments (ALDH assay screening result)” value was “Active”. In the case of `O=Cc1ccc(F)cc1` [4-fluorobenzaldehyde], the “Comments (ALDH assay screening result)” value is reported as “Active”. For `COc1cccc(C=O)c1` [3-anisladehyde], the “Comments (ALDH assay screening result)” value was “Active”. With `COc1ccc2cc(C=O)ccc2c1` [6-Methoxy-2-Naphthaldehyde] the “Comments (ALDH assay screening result)” value was “Active”. With `O=Cc1ccc2ccccc2c1` [2-Naphthaldehyde] the “Comments (ALDH assay screening result)” value was “Active”. With `O=Cc1ccc(I)cc1` [4-Iodobenzaldehyde] the “Comments (ALDH assay screening result)” value was “Active”. In the case of `O=CCCNC(=O)c1ccc(F)cc1` [Example 2, (2-formylethyl)-4-fluorobenzamide], the “Comments (ALDH assay screening result)” value is reported as “Not active”.

Each molecule was assayed on ALDH (assay: Cell based ALDH assay: competition against ALDEFLUOR in SK-BR-3 cells, FACS). Settings: FACS at 488 nm.
Method: Briefly, the compound was dissolved in DMSO and competed against ALDEFLUOR™, a BODIPY-conjugated ALDH substrate, in a cell-based assay using SK-BR-3 cells. The BODIPY fluorescence in the cell samples were measured using FACS at 488 nm. The median fluorescence of each sample was measured and fitted to a sigmoidal dose-response curve for calculation of IC50 using Prism Graphpad.
6-(2-fluoroethyloxy)-2-naphthaldehyde was dissolved and diluted in DMSO prior to use.
SK-BR-3 cells, a cell line reported to have a high expression of ALDH+ cells, was used for all experiments. The cells were cultured in RPMI media supplemented with 10% fetal bovine serum and 2 mM L-glutamine, in 37° C., 5% CO2. On the day of assay, cells were harvested by trypsination, centrifuged, and re-suspended in ALDEFLUOR™ assay buffer to a concentration of 1×10^6 cells.
The compound was competed against ALDEFLUOR™, a BODIPY-conjugated ALDH substrate. […] Following incubation at 37° C., the fluorescence was measured in each sample by FACS at 488 nm. […]
The median fluorescence of each sample was calculated, and the values were then normalized and fitted to a dose-response curve for calculation of IC50 using Prism Graphpad.
In the case of `O=Cc1ccc2cc(OCCF)ccc2c1` [Example 3A, 6-(2-fluoroethyloxy)-2-naphthaldehyde], the “Displacement of ALDEFLUOR (decrease in fluorescence with increasing compound concentration)” value is reported as “displaced ALDEFLUOR™”.

Same assay, conditions: competition against ALDEFLUOR, BODIPY fluorescence by FACS at 488 nm, compound 0.005-50 μM
With `O=Cc1ccc2cc(OCCF)ccc2c1` [Example 3A, 6-(2-fluoroethyloxy)-2-naphthaldehyde] the IC50 was 330 nM.

From US20130101509A1, “IMAGING AND RADIOTHERAPY METHODS” (GENERAL ELECTRIC COMPANY, priority 2008, published 2013)
